Columns and labels:
LFA-1 receptor [1] = assay: Radioisotopic dilution / competitive leukocyte binding assay; design: species or system Rat; conditions: serum, RBC and PBMC samples
Description: (§1) Radioisotopic dilution methods were performed with log-fold serial dilutions at concentrations of 1:1, 1:10, 1:100 and 1:1000 radiolabeled DANBIRT. Rat whole blood was collected and incubated for 10 minutes with [^111In] In-DANBIRT. Leukocyte isolation was performed for neutrophil and PBMC separations post-incubation with radiolabeled DANBIRT (specific activity 625 mCi/pM). Cytospin 2 (Shandon 2,59900002) with double-funnel and white filter (Simport, 930941126) was used for clustered cell differentials identification methods. Cytospin samples were spread in Superfrost Plus slides (VWR, 48311-703) and fixed with […]. Wright-Giemsa horizontal staining protocol was performed according to manufacturer's package insert instructions (Sigma Aldrich, SLBN4704V). Cell morphology, differentials and sample purity were assessed using a light microscope at 40× objective (Olympus BX51).

LFA-1 receptor [2] = target: T1, LFA-1 receptor (Rattus norvegicus, UniProt F1LP44); assay: as above; conditions: compared to neutrophil sample, p<0.05
T1 construct: endogenous in cells; host or cells: neutrophils and PBMCs from whole blood of male Sprague Dawley rats
T1 sequence (F1LP44 24-1161): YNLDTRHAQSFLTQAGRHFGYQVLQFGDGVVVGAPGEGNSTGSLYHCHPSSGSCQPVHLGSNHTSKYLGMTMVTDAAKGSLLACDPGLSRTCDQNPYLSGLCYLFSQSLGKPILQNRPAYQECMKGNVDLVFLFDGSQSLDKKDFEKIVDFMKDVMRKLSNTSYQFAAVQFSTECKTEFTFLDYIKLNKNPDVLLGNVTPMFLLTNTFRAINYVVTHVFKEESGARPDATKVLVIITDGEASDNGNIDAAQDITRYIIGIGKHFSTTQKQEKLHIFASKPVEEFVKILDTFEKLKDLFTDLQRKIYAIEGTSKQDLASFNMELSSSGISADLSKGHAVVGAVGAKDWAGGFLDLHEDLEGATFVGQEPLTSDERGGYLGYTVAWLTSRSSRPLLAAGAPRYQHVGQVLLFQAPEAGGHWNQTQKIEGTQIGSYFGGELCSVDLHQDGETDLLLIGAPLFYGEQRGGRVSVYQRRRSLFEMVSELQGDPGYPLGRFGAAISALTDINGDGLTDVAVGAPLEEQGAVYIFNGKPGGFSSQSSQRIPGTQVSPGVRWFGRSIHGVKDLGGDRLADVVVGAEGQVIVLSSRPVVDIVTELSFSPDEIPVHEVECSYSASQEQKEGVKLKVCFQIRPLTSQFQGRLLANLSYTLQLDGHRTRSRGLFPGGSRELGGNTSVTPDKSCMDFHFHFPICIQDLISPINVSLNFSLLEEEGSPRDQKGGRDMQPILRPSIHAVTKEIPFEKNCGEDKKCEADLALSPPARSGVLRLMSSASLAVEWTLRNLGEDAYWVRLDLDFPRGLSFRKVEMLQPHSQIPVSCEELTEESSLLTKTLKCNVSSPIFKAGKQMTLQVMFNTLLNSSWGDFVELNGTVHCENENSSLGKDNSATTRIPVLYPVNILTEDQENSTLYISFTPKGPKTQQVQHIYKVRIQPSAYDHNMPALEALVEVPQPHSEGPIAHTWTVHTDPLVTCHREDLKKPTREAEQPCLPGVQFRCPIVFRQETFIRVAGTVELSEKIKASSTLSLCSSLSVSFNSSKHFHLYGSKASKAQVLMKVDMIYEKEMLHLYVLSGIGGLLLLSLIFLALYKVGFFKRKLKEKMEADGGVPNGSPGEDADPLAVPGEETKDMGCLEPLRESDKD
Description: as §1

For `C[C@]1(Cc2ccc(Br)cc2)C(=O)N(c2cc(Cl)cc(Cl)c2)C(=O)N1CCCCNC(=O)CN1CCN2CCN3CCN(CC1)CC(=O)[O][111In]([O]C(=O)C2)[O]C(=O)C3` [[^111In] In-DANBIRT], the “decrease of initial uptake after each log fold dilution concentration” value (LFA-1 receptor [1]) was 50% and the “saturation in PBMCs at different dilution concentrations” value (LFA-1 receptor [2]) was “did not evidence any saturation levels”.
